# In article PMC11683478, “Bioprospecting of culturable marine biofilm bacteria for novel antimicrobial peptides” (iMeta, 2024):
# What was measured:
# Test in all cases: Antibacterial screen at 200 μg/mL (cell density vs control)
# Format in all cases: cell-based
# Settings in all cases: peptide 200 μg/mL, CAMHB, 5 × 10^5 CFU/mL, 37°C, 12 h, OD600; control (no AMP) = 1; three biological replicates
# [1] = tested on: Salmonella bongori ATCC 43975
# Protocol: (§1) Eight bacterial strains were utilized in the antibacterial experiment. S. aureus ATCC 12600, B. subtilis ATCC 23857, E. coli ATCC 11775, and A. baumannii ATCC 19606 were purchased from Shanghai Beinuo Biology. M. luteus ATCC 4698 and S. bongori ATCC43975 were purchased from Shanghai Beisi Biotechnology. V. owensii ems001 and V. alginolyticus xv22 from the intestines of diseased shrimps were isolated in our laboratory. All strains were cultured in the cation‐adjusted Mueller‐Hinton broth (CAMHB) at 37°C to the logarithmic growth phase (OD600 = 0.5). Then, bacteria were gradient‐diluted using fresh CAMHB to a bacterial density of 5 × 10^5 CFU/mL. Antibacterial experiments were performed in a 96‐well plate with 200 μg/mL final peptide concentration. Four experimental groups were set up, including a blank control (200 μL CAMHB), a negative control (180 μL CAMHB plus 20 μL peptide), a positive control (180 μL bacterial culture plus 20 μL ultrapure water), and an experimental group (180 μL bacterial culture plus 20 μL peptide). Three biological replicates were conducted for each group, and OD600 values were measured after incubation at 37°C for 12 h. Every observed value was removed from the blank control group value. The value of the experimental group was then subtracted from the value of the negative control group therefore eradicating the effect of the peptide on the OD measurement. Student's t‐test allowed the estimation of a notable variation between the experimental and positive groups using a p‐value of 0.05 as the limit. […] The MIC of a peptide against a bacterium was determined as the minimum peptide concentration at which there was no visible bacterial growth.
# [2] = tested on: Escherichia coli ATCC 11775
# Protocol: as §1
# [3] = tested on: Micrococcus luteus ATCC 4698
# Protocol: as §1
# [4] = tested on: Bacillus subtilis ATCC 23857
# Protocol: as §1
# [5] = tested on: Vibrio alginolyticus xv22
# Protocol: as §1
# Vibrio owensii ems001 = tested on: Vibrio owensii ems001
# Protocol: as §1
# [6] = tested on: Acinetobacter baumannii ATCC 19606
# Protocol: as §1
# [7] = tested on: Staphylococcus aureus ATCC 12600
# Protocol: as §1
Sequence,"cell density relative to control, S. bongori ATCC 43975 [1]","cell density relative to control, E. coli ATCC 11775 [2]","cell density relative to control, M. luteus ATCC 4698 [3]","cell density relative to control, B. subtilis ATCC 23857 [4]","cell density relative to control, V. alginolyticus xv22 [5]","cell density relative to control, V. owensii ems001 (Vibrio owensii ems001)","cell density relative to control, A. baumannii ATCC 19606 [6]","cell density relative to control, S. aureus ATCC 12600 [7]"
"MICWCAKICCSCSAFRRWWKRNGTAC [Cand-57, chemically synthesized candidate AMP predicted from marine biofilm bacteria]",0.134,0.456,1,0,0,0.002,0.653,0
"MIYICTRITKCKLHGGCSSVG [Cand-155, chemically synthesized candidate AMP predicted from marine biofilm bacteria]",1,1,1,0.99,1,0.77,1,0
"MKALRRFLSCKVCSHALN [Cand-160, chemically synthesized candidate AMP predicted from marine biofilm bacteria]",0.072,0.406,0.638,0,0.001,0.442,0.001,0
"MKGLSKCVTHVVTAA [Cand-115, chemically synthesized candidate AMP predicted from marine biofilm bacteria]",0.935,1,1,1,1,0.994,1,0.907
"MKRLKKCVLSSLSI [Cand-126, chemically synthesized candidate AMP predicted from marine biofilm bacteria]",0.299,0.448,0,0.301,0.039,1,0.191,0
"MLKLSWNLCRPIGRRW [Cand-186, chemically synthesized candidate AMP predicted from marine biofilm bacteria]",0.245,0.036,0.164,0,0.192,0.091,0.276,0.112
"MLRRIGRMWRKLHPHGQ [Cand-10, chemically synthesized candidate AMP predicted from marine biofilm bacteria]",0.009,0.001,0.001,0.032,0.001,0.041,0.009,0.007
"MLTTIAKSTKKCKPKSCCACSLYRC [Cand-216, chemically synthesized candidate AMP predicted from marine biofilm bacteria]",0.556,0.832,0.978,0.845,0,0.018,1,0.86
"MPASRRCRPCCRLSGC [Cand-7, chemically synthesized candidate AMP predicted from marine biofilm bacteria]",1,0.989,1,0.065,0.016,0.114,1,0.01
"MPKRPWRACSSIG [Cand-212, chemically synthesized candidate AMP predicted from marine biofilm bacteria]",0.839,1,1,1,1,1,0.835,0.896
"MPKVKTKVCHRR [Cand-26, chemically synthesized candidate AMP predicted from marine biofilm bacteria]",0.862,1,1,0.676,0,0.917,0.88,0.897
"MQPILKKAAPKHVGYFYKCYL [Cand-119, chemically synthesized candidate AMP predicted from marine biofilm bacteria]",0.699,0.618,1,0.838,0.73,0.046,0.908,0
"MRHNMCRIGGRL [Cand-203, chemically synthesized candidate AMP predicted from marine biofilm bacteria]",0.825,1,0.966,1,0.004,1,1,1
